Earlier results in patent US20010027177A1, “Pharmaceutical composition containing a small or medium size peptide” (priority 2000, published 2001).
Values belong to the compound of their own block, whether it stands above or below them.

Legend:
[1] = solutions free from preservative; polystyrene, polypropylene and glass tubes; 24 hours at room temperature
[2] = adsorption to glass bottles and plastic tubing used in giving sets

loss of active principle because of adsorption by the walls [1]: lose about the half of active principle
Compound: NC(=O)CC[C@@H]1NC(=O)[C@H](Cc2ccccc2)NC(=O)[C@H](Cc2ccc(O)cc2)NC(=O)CCSSC[C@@H](C(=O)N2CCC[C@H]2C(=O)N[C@H](CCCN=C(N)N)C(=O)NCC(N)=O)NC(=O)[C@H](CC(N)=O)NC1=O [desmopressin, 1-deamino-8-D-arginin-vasopressin]

Compound: benzalkonium chloride
effect on nasal ciliar motility (nasal ciliar motility): irreversible suppression of the nasal ciliar motility

Compound: insulin: peptide drug cited for adsorption to glass bottles and plastic tubing
losses of activity/potency because of adsorption [2]: ≤ 78.8%
